Laboratory results published in patent publication US20020137929A1, “1 - (3-heterocyclylphenyl) isothiourea, -isourea, -guanidine and -amidine herbicidal agents” (Intellectual Property Department, BASF Aktiengesellschaft, priority 1998, published 2002).

Legend:
[1] = tested on: CASOB (Sicklepod); test: Postemergence herbicidal evaluation; type: in vivo, Cassia obtusifolia; details: postemergence
Method in brief: (§1)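 Scores (0–9) reflect plant stand, vigor, malformation, size, chlorosis and general appearance relative to control, read 4 to 5 weeks after treatment and averaged where tests were repeated. Application: about 0.0156–0.500 kg/ha sprayed at 40 psi onto two-week seedlings.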

[2] = tested on: CHEAL (Lambsquarters, Common); test: Postemergence herbicidal evaluation; type: in vivo, Chenopodium album; details: postemergence
Method in brief: as §1

[3] = tested on: ECHCG (Barnyardgrass); test: Postemergence herbicidal evaluation; type: in vivo, Echinochloa crus-galli; details: postemergence
Method in brief: as §1

[4] = tested on: ORYSAT (Rice, Tebonnet); test: Postemergence herbicidal evaluation; type: in vivo, Oryza sativa, (L.) Tebonnet; details: postemergence
Method in brief: as §1

[5] = tested on: GALAP (Galium); test: Preemergence herbicidal evaluation; type: in vivo, Galium aparine; details: rated 4-5 weeks after treatment, rating scale 0-9
Method in brief: (§2)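 Preemergence soil application of compound, sprayed in aqueous acetone at rates equivalent to about 0.0156 to 0.500 kg per hectare onto freshly sown cups. Plant response was judged by eye on a 0-9 scale four to five weeks later.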

[6] = tested on: SETVI (Foxtail, Green); test: Preemergence herbicidal evaluation; type: in vivo, Setaria viridis; details: rated 4-5 weeks after treatment, rating scale 0-9
Method in brief: as §2

[7] = tested on: GLXMAW (Soybean, Williams); test: Preemergence herbicidal evaluation; type: in vivo, Glycine max, (L.) Merr. cv Williams; details: rated 4-5 weeks after treatment, rating scale 0-9
Method in brief: as §2

[8] = tested on: ORYSAT (Rice, Tebonnet); test: Preemergence herbicidal evaluation; type: in vivo, Oryza sativa, (L.) Tebonnet; details: rated 4-5 weeks after treatment, rating scale 0-9
Method in brief: as §2

[9] = tested on: TRZAWR (Wheat, Winter, cv Riband); test: Preemergence herbicidal evaluation; type: in vivo, Triticum aestivum; details: rated 4-5 weeks after treatment, rating scale 0-9
Method in brief: as §2

[10] = tested on: ZEAMX (Corn, Field); test: Preemergence herbicidal evaluation; type: in vivo, Zea mays; details: rated 4-5 weeks after treatment, rating scale 0-9
Method in brief: as §2

[11] = tested on: CYPIR (Rice Flatsedge); test: Preemergence weed control under flooded paddy conditions; type: in vivo, Cyperus iria; details: rated 3-4 weeks after treatment
Method in brief: (§3)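 Silt loam, seeds in top 0.5 cm; flood held 1.5-3 cm; test cpd as acetone/water 50/50 into flood water, ~0.0313-0.500 kg/ha a.i.; greenhouse 3-4 wk; visual 0-9 score vs control.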

[12] = tested on: MOOVA (Monochoria); test: as above; type: in vivo, Monochoria vaginalis; details: rated 3-4 weeks after treatment
Method in brief: as §3

[13] = tested on: SAGPY (Arrowhead (Pygmaea)); test: as above; type: in vivo, Sagittaria pygmaea; details: rated 3-4 weeks after treatment
Method in brief: as §3

For Cn1c(C(F)(F)F)cc(=O)n(-c2cc(N=C3SCC(=O)N3Cc3ccncc3)c(Cl)cc2F)c1=O [Compound 133, 3-{4-Chloro-2-fluoro-5-{[4-oxo-3-(4-pyridylmethyl)-2-thiazolidinylidene]amino}phenyl}-1-methyl-6-(trifluoromethyl)-2,4(1H,3H)-pyrimidinedione], the “Herbicidal rating CASOB” value ([1]; rate 0.0156 kg/ha) was 0.0, the “Herbicidal rating CASOB” value ([1]; rate 0.0313 kg/ha) was 1.0 and the “Herbicidal rating CASOB” value ([1]; rate 0.0625 kg/ha) was 3.0. The “Herbicidal rating CHEAL” value ([2]; rate 0.0156 kg/ha) was 9.0, the “Herbicidal rating CHEAL” value ([2]; rate 0.0313 kg/ha) was 6.0 and the “Herbicidal rating CHEAL” value ([2]; rate 0.0625 kg/ha) was 9.0. The “Herbicidal rating ECHCG” value ([3]; rate 0.0156 kg/ha) was 1.0, the “Herbicidal rating ECHCG” value ([3]; rate 0.0313 kg/ha) was 1.0 and the “Herbicidal rating ECHCG” value ([3]; rate 0.0625 kg/ha) was 1.0. The “Herbicidal rating ORYSAT” value ([4]; rate 0.0156 kg/ha) was 2.5, the “Herbicidal rating ORYSAT” value ([4]; rate 0.0313 kg/ha) was 2.5 and the “Herbicidal rating ORYSAT” value ([4]; rate 0.0625 kg/ha) was 3.0. For the same compound, the “Preemergence herbicidal rating GALAP” value ([5]; rate 0.0313 kg/ha) was 0.0, the “Preemergence herbicidal rating GALAP” value ([5]; rate 0.0625 kg/ha) was 0.0 and the “Preemergence herbicidal rating GALAP” value ([5]; rate 0.1250 kg/ha) was 0.0. The “Preemergence herbicidal rating GALAP” value ([5]; rate 0.2500 kg/ha) was 0.0, the “Preemergence herbicidal rating SETVI” value ([6]; rate 0.0313 kg/ha) was 0.0 and the “Preemergence herbicidal rating SETVI” value ([6]; rate 0.0625 kg/ha) was 0.0. For the same compound, the “Preemergence herbicidal rating SETVI” value ([6]; rate 0.1250 kg/ha) was 0.0, the “Preemergence herbicidal rating SETVI” value ([6]; rate 0.2500 kg/ha) was 0.0 and the “Preemergence herbicidal rating GLXMAW” value ([7]; rate 0.0313 kg/ha) was 0.0. For the same compound, the “Preemergence herbicidal rating GLXMAW” value ([7]; rate 0.0625 kg/ha) was 0.0, the “Preemergence herbicidal rating GLXMAW” value ([7]; rate 0.1250 kg/ha) was 0.0 and the “Preemergence herbicidal rating GLXMAW” value ([7]; rate 0.2500 kg/ha) was 0.0. The “Preemergence herbicidal rating ORYSAT” value ([8]; rate 0.0313 kg/ha) was 0.0, the “Preemergence herbicidal rating ORYSAT” value ([8]; rate 0.0625 kg/ha) was 0.0 and the “Preemergence herbicidal rating ORYSAT” value ([8]; rate 0.1250 kg/ha) was 0.0. For the same compound, the “Preemergence herbicidal rating ORYSAT” value ([8]; rate 0.2500 kg/ha) was 0.0, the “Preemergence herbicidal rating TRZAWR” value ([9]; rate 0.0313 kg/ha) was 0.0 and the “Preemergence herbicidal rating TRZAWR” value ([9]; rate 0.0625 kg/ha) was 0.0. For the same compound, the “Preemergence herbicidal rating TRZAWR” value ([9]; rate 0.1250 kg/ha) was 0.0, the “Preemergence herbicidal rating TRZAWR” value ([9]; rate 0.2500 kg/ha) was 0.0 and the “Preemergence herbicidal rating ZEAMX” value ([10]; rate 0.0313 kg/ha) was 0.0. For the same compound, the “Preemergence herbicidal rating ZEAMX” value ([10]; rate 0.0625 kg/ha) was 0.0, the “Preemergence herbicidal rating ZEAMX” value ([10]; rate 0.1250 kg/ha) was 0.0 and the “Preemergence herbicidal rating ZEAMX” value ([10]; rate 0.2500 kg/ha) was 0.0. For the same compound, the “herbicidal effect rating, CYPIR” value ([11]; 0.0313 kg/ha) was 0.0, the “herbicidal effect rating, CYPIR” value ([11]; 0.0625 kg/ha) was 0.0 and the “herbicidal effect rating, CYPIR” value ([11]; 0.1250 kg/ha) was 2.0. For the same compound, the “herbicidal effect rating, CYPIR” value ([11]; 0.2500 kg/ha) was 3.0, the “herbicidal effect rating, MOOVA” value ([12]; 0.0313 kg/ha) was 3.0 and the “herbicidal effect rating, MOOVA” value ([12]; 0.0625 kg/ha) was 4.0. For the same compound, the “herbicidal effect rating, MOOVA” value ([12]; 0.1250 kg/ha) was 4.0, the “herbicidal effect rating, MOOVA” value ([12]; 0.2500 kg/ha) was 6.0 and the “herbicidal effect rating, SAGPY” value ([13]; 0.0313 kg/ha) was 0.0. For the same compound, the “herbicidal effect rating, SAGPY” value ([13]; 0.0625 kg/ha) was 3.0, the “herbicidal effect rating, SAGPY” value ([13]; 0.1250 kg/ha) was 3.0 and the “herbicidal effect rating, SAGPY” value ([13]; 0.2500 kg/ha) was 3.0.
